Measured values: patent publication US20220325301A1, “AUXOTROPHIC SELECTION METHODS” (AUXOLYTIC LTD, priority 2019, published 2022)

Experiments:
[1] = test system: UMPS knockout H9 human embryonic stem cells (hESCs); test: Lineage-specific auxotrophy during beta cell differentiation (GFP ratio in mCherry-off vs mCherry-on cells, fluorescence microscopy); type: cell-based; details: uridine withdrawal at day 12
Description: As a proof of concept, UMPS knockout cells were engineered to express insulin and were differentiated to pancreatic progenitor cells using an appropriate method as described, for example, in Ma et al. (2018), Pagliuca et al. (2014), and/or Rezania et al. (2014) discussed and incorporated herein. The UMPS gene was knocked out in H9 human embryonic stem cells (hESCs) according to the methods described herein. A GFP-Luciferase expression construct under regulation of a constitutive promoter was integrated by homologous recombination into the HBB locus (see, for example, Dever, Daniel P., et al. “CRISPR/Cas9 β-globin gene targeting in human haematopoietic stem cells.” Nature 539.7629 (2016): 384-389, the contents of which are incorporated herein by reference in their entirety). […] Cells were monitored and assessed for mCherry and UMPS expression on subsequent days up to day 25. The differentiation protocol was followed with cells either in the continuous presence of uridine through day 18 or through the end of the culture period, or through only day 12 (during Stage 4). mCherry and UMPS expression were assessed. An mCherry on vs. off threshold was defined to identify UMPS expressing cells (given UMPS expression is coupled to mCherry) using thresholding based on fluorescence images. […]
Therefore, expression of GFP in mCherry negative cells, when uridine is present, was expected to be higher than the expression of GFP in mCherry negative cells when uridine is absent. […] The results are shown in Table 7, where the “Auxotrophy Metric” was calculated as the mean GFP ratio in uridine-withdrawn conditions divided by the mean GFP ratio in uridine-continued conditions: [(mean GFP(mCherry-Off)/mean GFP(mCherry-On)) uridine-withdrawn-conditions]/[(mean GFP(mCherry-Off)/mean GFP(mCherry-On)) uridine-continued conditions].

[2] = test system: UMPS knockout cells; test: Selection of cells re-expressing UMPS in a UMPS-/- background (% mCherry+ by flow cytometry); type: cell-based; details: after 14 days in culture
Experimental: A construct (SEQ ID NO: 42) expressing mCherry and UMPS separated by a 2A linker sequence under control of a constitutive promoter (EF1a) delivered via DNA vector was inserted by electroporation into the CCR5 locus targeted using homologous recombination arms. Cells were grown in the presence of uridine to alleviate any selection pressure, then uridine was removed to select for cells successfully re-expressing UMPS. Cells were sorted by expression of mCherry using flow cytometry. After 14 days in culture, % mCherry+ cells was approximately 20% in the presence of uridine; % mCherry+ cells was approximately 90% in the absence of uridine.

[3] = test system: UMPS knockout cells; test: Split auxotrophy: selection of dual transgene integration (CD19/mCherry flow cytometry); type: cell-based, human; details: day 16
Experimental: The UMPS locus is disrupted in the hESCs by electroporation of Cas9 RNP to insert an expression control sequence comprising a tissue-specific promoter into the genomic locus. The promoter will begin to instigate transcription due to interaction with endothelial tissue. For gene editing, hESCs are treated with 10 μm ROCK inhibitor (Y-27632) for 24 hours before electroporation. Cells at 70-80% confluence are harvested with ACCUTASE® solution (Life Technologies). 500,000 cells were used per reaction with a SpCas9 concentration of 150 μg/mL (Integrated DNA Technologies) and a Cas9:sgRNA molar ratio of 1:3 and electroporation performed in P3 Primary Cell solution (Lonza) in 16-well NUCLEOCUVETTE™ Strips in the 4D NUCLEOFECTOR system (Lonza). Immediately after electroporation, cells are transferred into one well of a MATRIGEL® protein mixture (Corning, Inc.)-coated 24 well plate containing 500 μl of mTeSR™ media (STEMCELL Technologies) with 10 μM Y-27632. Media was changed 24 hours after editing and Y-27632 is removed 48 hours after.
Independent functional domains of UMPS, i.e. OPRT and ODC, are reintroduced into UMPS knockout cells according to Example 2 using two separate vectors. A first homologous recombination donor vector carrying OPRT and mCherry (SEQ ID NO: 43) comprises sequence encoding OPRT (SEQ ID NO: 4, encoding amino acid sequence of SEQ ID NO: 5), 2A linker (SEQ ID NO: 19, SEQ ID NO: 21, or SEQ ID NO: 23, encoding amino acid sequences of SEQ ID NO: 20, SEQ ID NO: 22, and SEQ ID NO: 24, respectively), and sequence encoding mCherry fluorescent protein (SEQ ID NO: 34 or SEQ ID NO: 35, each encoding amino acid sequence of SEQ ID NO: 36). Homologous recombination donor vector carrying ODC and CD19 (SEQ ID NO: 44) comprises sequence encoding tCD19 (SEQ ID NO: 37, encoding amino acid sequence of SEQ ID NO: 38), 2A linker, and sequence encoding ODC (SEQ ID NO: 6, encoding amino acid sequence of SEQ ID NO: 7). Expression of OPRT and ODC constructs can be driven by a eukaryotic promoter such as EF1a (SEQ ID NO: 31 or SEQ ID NO: 32). Homologous recombination vectors are co-targeted for integration into safe harbor locus CCR5 (using, for example, CCR5 left and right homology arms selected from SEQ ID NOs: 11-15 as described herein). Homologous recombination vectors can further include termination signals such as a bGH-PolyA termination signal (SEQ ID NO: 39 or SEQ ID NO: 40). Cells are cultured with and without uridine, and the percent of cells expressing both CD19 and mCherry (CD19+/mCherry+) is measured by flow cytometry over time.

INS-mCherry-UMPS: tricistronic construct expressing insulin, mCherry and UMPS under endogenous insulin regulatory control sequences, integrated into the insulin locus
Auxotrophy Metric (mean GFP ratio mCherry-Off/mCherry-On, uridine-withdrawn divided by uridine-continued) ([1]; culture day 12): 0.9904 | Auxotrophy Metric (mean GFP ratio mCherry-Off/mCherry-On, uridine-withdrawn divided by uridine-continued) ([1]; culture day 18): 0.9827 | Auxotrophy Metric (mean GFP ratio mCherry-Off/mCherry-On, uridine-withdrawn divided by uridine-continued) ([1]; culture day 25): 0.7261

SEQ ID NO: 42: construct expressing mCherry and UMPS separated by a 2A linker under constitutive EF1a promoter, inserted into the CCR5 locus of UMPS knockout cells
% mCherry+ cells ([2]; in the absence of uridine): approximately 90% | % mCherry+ cells ([2]; in the presence of uridine): approximately 20%

Split UMPS: two homologous recombination donor vectors, OPRT and mCherry (SEQ ID NO: 43) and ODC and CD19 (SEQ ID NO: 44), co-targeted to CCR5
% CD19+ only ([3]; +Uridine): 1.2% | % CD19+/mCherry+ ([3]; +Uridine): 0.3% | % CD19-/mCherry- ([3]; +Uridine): 92.9% | % mCherry+ only ([3]; +Uridine): 5.6% | % CD19+ only ([3]; No Uridine): 0.1% | % CD19+/mCherry+ ([3]; No Uridine): 94.7% | % CD19-/mCherry- ([3]; No Uridine): 0.1% | % mCherry+ only ([3]; No Uridine): 5.1%
